We go through 1 compound from US20110166144A1, “Pyrimidotriazinediones and Pyrimidopyrimidinediones and Methods of Using the Same” (THE REGENTS OF THE UNIVERSITY OF MICHIGAN, priority 2008, published 2011).

Data set [1] has as its system IEC18 Rat Epithelial Cells (IEC18-S33Y). The settings on record: 17-20 h with compound, WST-1. As to the method: Using the above assay system, IC50 and LD50 values were determined for the pyrimidotriazinedione compounds. IEC18-S33Y cells carrying a β-catenin firefly luciferase cassette and a constitutively active renilla luciferase cassette were seeded at 40,000 cells/well in 96-well tissue culture plates (BD Biosciences, Bedford, Mass.) in a total volume of 80 μL of tissue culture medium (Dulbecco's modified Eagle medium without Phenol-Red (Invitrogen, Carlsbad, Calif.) supplemented with 10% (v/v) fetal bovine serum (Hyclone, Logan, Utah)) and incubated for 24 h. […] Working solutions of the compounds were obtained by further diluting the stock solutions in tissue culture medium by at least 50-fold. Serial twofold dilutions of the working solutions of the compounds were added to the cells in a volume of 40 μL and the cells were incubated in the presence of the compounds for 17-20 h.
LD50 values of the pyrimidotriazinediones then were determined using a WST-1 colorimetric cell proliferation assay. A mixture containing 20 μL of medium and 10 μL of WST-1 reagent (available from Roche, Indianapolis, Ind.) was added to the cells and the cells were incubated for 1 h at 37° C., after which time absorption at 550 nm was measured using a microplate reader.

Data set [2] has as its system β-catenin/TCF complex. As to the kind of experiment: cells. In kind it is cell-based. Particulars: Rattus norvegicus; IEC18-S33Y cells, 17-20 h with compound, β-catenin-dependent firefly luciferase with Renilla control; read-out: IC50.
The nature of data set [3]: Pharmacokinetic properties in mice (plasma level by HPLC/MS). In kind it is in vivo. The settings on record: 10 mg/kg, plasma 1 minute to 12 hours post-injection. As to the method:
The pharmacokinetic properties of a substituted pyrimido[5,4-e][1,2,4]triazine-5,7(6H,8H)-dione of formula II (3-(4-(2-(Diethylamino)ethoxy)phenyl)-8-(3,4-difluorobenzyl)-6-methylpyrimido[5,4-e][1,2,4]triazine-5,7(6H,8H)-dione) in mice were determined by dosing a cohort of mice with 10 mg/kg compound. Blood was drawn from the mice at various time points (1 minute, 15 minutes, 30 minutes, 3 hours, 6 hours, and 12 hours) post-injection. The blood plasma was isolated from the drawn blood and the amount of compound present in the plasma was measured by HPLC with peak analysis by mass spectrometry.

What is called IC50 is the point on the concentration scale where inhibition reaches its midpoint. `CCN(CC)CCOc1ccc(-c2nnc3c(n2)c(=O)n(C)c(=O)n3Cc2ccc(F)c(F)c2)cc1` [Compound 10g, 3-(4-(2-(Diethylamino)ethoxy)phenyl)-8-(3,4-difluorobenzyl)-6-methylpyrimido[5,4-e][1,2,4]triazine-5,7(6H,8H)-dione]: the LD50 in data set [1] turned out to be 2.57 ± 10.99 µM. In addition, the IC50 in data set [2] amounted to 700 ± 130 nM. In addition, the “pharmacokinetic properties as assessed by peak plasma level and half-life” value in data set [3] is “favorable pharmacokinetic properties”.
